The text below walks through data of article PMC3885398, “Evaluation of the Antitumor Effects of BPR1J-340, a Potent and Selective FLT3 Inhibitor, Alone or in Combination with an HDAC Inhibitor, Vorinostat, in AML Cancer” (PLoS ONE, 2014).

“Also recorded” adds a separate entry of the source.

The target of data set [1] is T1, FLT4 (VEGFR3) (Homo sapiens, UniProt P35916). Kind of data set: Invitrogen SelectScreen kinase profiling. Format: biochemical. Details: purchased Invitrogen SelectScreen. The conditions noted are these: 100 nM. Here is the method: (§1) The FLT3 and VEGFR1/2 Kinase-Glo kinase assays were performed as reported by our earlier study. The VEGFR3 activity analysis was conducted using the same protocol described in the VEGFR1/2 assay. The kinase inhibition profiling and inhibitory activity of FLT3-D835Y, CSF1R, and TRKA were determined by Invitrogen SelectScreen® kinase profiling service (Carlsbad, California, USA).
(§2) BPR1J-340, a urea-substituted 3-phenyl-1H-5-pyrazolylamine-based compound, was designed through chemical modification of sulfonamide series of derivatives (BPR1J-097 series) by a structure-activity relationship (SAR) study (Fig. 1), [32]. For kinase inhibition specificity screening, BPR1J-340 was tested against 59 protein kinases covering the major oncogenic kinases of human protein kinome. […] In addition, BPR1J-340 inhibited TRKA, which is associated with the growth and metastasis of breast cancers, with an IC50 value of 8 nM. Given the high similarity of the ATP binding pockets of FLT3 and the Aurora kinases, the inhibitory activity toward Aurora A and Aurora B were measured. […] Taken together, BPRJ-340 is a selective kinase inhibitor with in vitro activity against FLT3, VEGFR2, VEGFR3 and TRKA receptor tyrosine kinases.
Target sequence in this assay (P35916 25-1363): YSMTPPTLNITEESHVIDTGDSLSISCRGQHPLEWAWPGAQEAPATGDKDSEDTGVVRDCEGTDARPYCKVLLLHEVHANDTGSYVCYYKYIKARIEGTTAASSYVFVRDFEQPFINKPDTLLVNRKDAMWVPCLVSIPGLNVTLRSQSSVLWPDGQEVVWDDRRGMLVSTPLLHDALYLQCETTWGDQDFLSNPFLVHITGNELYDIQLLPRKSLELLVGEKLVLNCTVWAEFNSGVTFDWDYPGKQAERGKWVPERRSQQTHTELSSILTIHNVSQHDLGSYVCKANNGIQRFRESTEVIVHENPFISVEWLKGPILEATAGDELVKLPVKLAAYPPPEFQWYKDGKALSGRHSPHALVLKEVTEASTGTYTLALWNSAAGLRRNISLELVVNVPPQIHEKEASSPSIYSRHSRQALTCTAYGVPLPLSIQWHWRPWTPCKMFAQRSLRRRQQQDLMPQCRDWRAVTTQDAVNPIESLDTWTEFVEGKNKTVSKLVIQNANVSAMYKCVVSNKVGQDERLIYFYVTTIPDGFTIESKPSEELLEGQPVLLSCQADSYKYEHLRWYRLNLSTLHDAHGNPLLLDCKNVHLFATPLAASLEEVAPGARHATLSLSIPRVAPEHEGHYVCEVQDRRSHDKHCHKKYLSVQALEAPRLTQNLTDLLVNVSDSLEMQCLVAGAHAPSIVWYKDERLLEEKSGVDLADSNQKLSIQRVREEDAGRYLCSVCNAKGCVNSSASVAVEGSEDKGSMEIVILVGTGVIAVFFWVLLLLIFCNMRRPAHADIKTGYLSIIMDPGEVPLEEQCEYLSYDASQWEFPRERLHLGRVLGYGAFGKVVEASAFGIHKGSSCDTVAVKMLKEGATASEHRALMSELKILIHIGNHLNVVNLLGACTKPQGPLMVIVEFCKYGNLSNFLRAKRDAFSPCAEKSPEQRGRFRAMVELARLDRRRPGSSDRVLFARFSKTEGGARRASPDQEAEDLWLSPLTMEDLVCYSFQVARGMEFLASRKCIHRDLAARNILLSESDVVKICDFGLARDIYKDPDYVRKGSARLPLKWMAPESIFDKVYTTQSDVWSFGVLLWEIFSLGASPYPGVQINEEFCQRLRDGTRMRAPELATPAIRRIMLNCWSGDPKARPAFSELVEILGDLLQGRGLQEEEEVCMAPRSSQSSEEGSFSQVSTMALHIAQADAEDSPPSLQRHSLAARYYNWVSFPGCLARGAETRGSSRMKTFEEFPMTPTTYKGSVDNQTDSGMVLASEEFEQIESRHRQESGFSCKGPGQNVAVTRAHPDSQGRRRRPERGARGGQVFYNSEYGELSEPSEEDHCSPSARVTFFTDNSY

Data set [2] addresses KDR (VEGFR2) (Homo sapiens, UniProt P35968). Kind of data set: Invitrogen SelectScreen kinase profiling. Format: biochemical. Details: purchased Invitrogen SelectScreen. The conditions noted are these: 100 nM. Here is the method:
as §1, §2

Data set [3] concerns MOLM-13 tumor xenograft. Kind of data set: Subcutaneous MOLM-13 tumor xenograft in nude mice. Format: in vivo. The procedure:
Male nude mice (Nu-Fox1nu) of eight weeks old were purchased from BioLasco (Ilan, Taiwan). The nude mice (n = 5∼7 per group) were inoculated subcutaneously with MOLM-13 (1×10^6 cells/flank). All human cancer cells were determined to be free of Mycoplasma spp before the inoculation. When tumors size reached 100∼200 mm^3 and a large size of >500 mm^3, the animals were grouped and treated with the BPR1J-340 (5 and 20 mg/kg, i.v.) or vehicle as control once daily for 5 days per week for two or three weeks. Tumor sizes were measured and calculated with the formula of length×width^2/2 after the initiation of the treatments. Tumor size and animal body weight were measured twice a week after the tumor cell inoculation. At the end of the study, animals were euthanized by carbon dioxide inhalation followed by cervical dislocation. The significant difference between the treated and vehicle control were analyzed by using one-way ANOVA and Student-Newman-Keuls test. The level of a statistical significance was set at p<0.05.

The subject of data set [4] is STAT5 phosphorylation. Kind of data set: STAT5 phosphorylation in MV4;11 cells, Western blot. Format: cell-based. The conditions noted are these: Homo sapiens, 1 hour. Here is the method:
Cells were lysed in lysis buffer (50 mM Tris, pH 8.0, 150 mM NaCl, 1% Triton X-100, 0.5% sodium deoxycholate, 0.1% SDS, 1 mM sodium orthovanadate, 1 mM PMSF, and 1 mM DTT). Protein lysates were resolved by SDS-PAGE and transferred onto a polyvinylidene difluoride (PVDF) membrane (Millipore, Bedford, MA, USA). The membranes were immunoblotted with appropriate antibodies and detected using the SuperSignal reagent (Pierce, Rockford, IL, USA) followed by exposure to X-ray film.
To address whether BPR1J-340 was able to inhibit the FLT3 signaling pathway in FLT3-driven cells, MV4;11 cells were treated with different concentrations of BPR1J-340 for 1 hour, and the phosphorylation status of FLT3 and STAT5 (Signal Transducer and Activator of Transcription 5), a critical down-stream modulator that plays a major role in FLT3-ITD signal transduction for cell expansion and survival, was examined by Western blot analysis. […] To investigate the difference in sensitivity between FLT3-WT and the activating mutants FLT3-ITD and FLT3-D835Y to BPR1J-340, HEK293T cells engineered to express FLT3-WT or mutants FLT3 (FLT3-ITD, FLT3-D835Y) were analyzed. […]
Figure 2 BPR1J-340 inhibits FLT3-dependent signaling. […] The phosphorylation status of FLT3 and STAT5 were evaluated by Western blot analysis. […] The FLT3 phosphorylation status in the transfected cells was evaluated by Western blot analysis.
In general terms: Immunoblotting shows a protein as a band on a membrane.

In data set [5] the target is T1, FLT4 (VEGFR3). Kind of data set: VEGFR3 Kinase-Glo kinase assay. Format: biochemical. Also noted: VEGFR3 (residues M800-Y1363); purchased Upstate (Billerica, MA, USA). The procedure: The FLT3 inhibitors, BPR1J-340 and AC220, were synthesized by our laboratory. The histone deacetylase inhibitor vorinostat (SAHA) was purchased from SelleckBio (Houston, TX, USA). All inhibitors were dissolved in dimethylsulfoxide (DMSO) at a stock concentration of 10 mM. The anti-FLT3 (sc-480, Santa Cruz Biotechnology, Santa Cruz, CA, USA), anti-pFLT3-Tyr591 (#3461, Cell Signaling Technology, Beverly, MA, USA) anti-STAT5 (#9363, Cell Signaling Technology), anti-pSTAT5–Tyr694 (#9351, Cell Signaling Technology), anti-cleaved poly ADP-ribose polymerase (PARP) (#9542, Cell Signaling Technology), anti-Mcl-1 (#4572, Cell Signaling Technology), anti-caspase 3 (#9662, Cell Signaling Technology) and anti-β-actin (Gtx110546, GeneTex, Irvine, CA, USA) antibodies were purchased for Western blotting analysis. The preparation of recombinant proteins, FLT3 (residues Y567-S993), VEGFR1 (residues R781-I1338) and VEGFR2 (residues V789-V1356), for biochemical kinase assay was described previously. The VEGFR3 (residues M800-Y1363) proteins were purchased from Upstate (Billerica, MA, USA).
The FLT3 and VEGFR1/2 Kinase-Glo kinase assays were performed as reported by our earlier study. […] The kinase inhibition profiling and inhibitory activity of FLT3-D835Y, CSF1R, and TRKA were determined by Invitrogen SelectScreen® kinase profiling service (Carlsbad, California, USA).
Target sequence in this assay (P35916 800-1363): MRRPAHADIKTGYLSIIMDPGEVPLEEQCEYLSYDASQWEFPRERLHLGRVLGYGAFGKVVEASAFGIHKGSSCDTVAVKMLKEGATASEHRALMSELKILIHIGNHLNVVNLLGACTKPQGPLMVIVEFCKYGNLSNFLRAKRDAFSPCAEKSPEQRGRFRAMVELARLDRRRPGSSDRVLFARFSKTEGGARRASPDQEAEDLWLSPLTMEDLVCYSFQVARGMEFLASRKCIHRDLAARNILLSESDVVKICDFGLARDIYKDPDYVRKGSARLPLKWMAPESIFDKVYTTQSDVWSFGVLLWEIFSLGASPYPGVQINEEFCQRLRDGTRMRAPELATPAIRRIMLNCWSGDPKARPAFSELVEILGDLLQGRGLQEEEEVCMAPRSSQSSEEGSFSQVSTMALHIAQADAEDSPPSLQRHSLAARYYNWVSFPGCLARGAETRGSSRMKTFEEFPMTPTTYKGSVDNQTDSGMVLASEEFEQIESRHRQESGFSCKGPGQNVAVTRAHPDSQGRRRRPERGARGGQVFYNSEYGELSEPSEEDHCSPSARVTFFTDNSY
(In general: In Kinase-Glo more light means more ATP remaining.)

The term inhibition denotes how much of the control response was suppressed. Read a low inhibition as a response near the control. In general, IC50 refers to the concentration needed to halve the response being measured.

Sequence of KDR (VEGFR2) (P35968 20-1356): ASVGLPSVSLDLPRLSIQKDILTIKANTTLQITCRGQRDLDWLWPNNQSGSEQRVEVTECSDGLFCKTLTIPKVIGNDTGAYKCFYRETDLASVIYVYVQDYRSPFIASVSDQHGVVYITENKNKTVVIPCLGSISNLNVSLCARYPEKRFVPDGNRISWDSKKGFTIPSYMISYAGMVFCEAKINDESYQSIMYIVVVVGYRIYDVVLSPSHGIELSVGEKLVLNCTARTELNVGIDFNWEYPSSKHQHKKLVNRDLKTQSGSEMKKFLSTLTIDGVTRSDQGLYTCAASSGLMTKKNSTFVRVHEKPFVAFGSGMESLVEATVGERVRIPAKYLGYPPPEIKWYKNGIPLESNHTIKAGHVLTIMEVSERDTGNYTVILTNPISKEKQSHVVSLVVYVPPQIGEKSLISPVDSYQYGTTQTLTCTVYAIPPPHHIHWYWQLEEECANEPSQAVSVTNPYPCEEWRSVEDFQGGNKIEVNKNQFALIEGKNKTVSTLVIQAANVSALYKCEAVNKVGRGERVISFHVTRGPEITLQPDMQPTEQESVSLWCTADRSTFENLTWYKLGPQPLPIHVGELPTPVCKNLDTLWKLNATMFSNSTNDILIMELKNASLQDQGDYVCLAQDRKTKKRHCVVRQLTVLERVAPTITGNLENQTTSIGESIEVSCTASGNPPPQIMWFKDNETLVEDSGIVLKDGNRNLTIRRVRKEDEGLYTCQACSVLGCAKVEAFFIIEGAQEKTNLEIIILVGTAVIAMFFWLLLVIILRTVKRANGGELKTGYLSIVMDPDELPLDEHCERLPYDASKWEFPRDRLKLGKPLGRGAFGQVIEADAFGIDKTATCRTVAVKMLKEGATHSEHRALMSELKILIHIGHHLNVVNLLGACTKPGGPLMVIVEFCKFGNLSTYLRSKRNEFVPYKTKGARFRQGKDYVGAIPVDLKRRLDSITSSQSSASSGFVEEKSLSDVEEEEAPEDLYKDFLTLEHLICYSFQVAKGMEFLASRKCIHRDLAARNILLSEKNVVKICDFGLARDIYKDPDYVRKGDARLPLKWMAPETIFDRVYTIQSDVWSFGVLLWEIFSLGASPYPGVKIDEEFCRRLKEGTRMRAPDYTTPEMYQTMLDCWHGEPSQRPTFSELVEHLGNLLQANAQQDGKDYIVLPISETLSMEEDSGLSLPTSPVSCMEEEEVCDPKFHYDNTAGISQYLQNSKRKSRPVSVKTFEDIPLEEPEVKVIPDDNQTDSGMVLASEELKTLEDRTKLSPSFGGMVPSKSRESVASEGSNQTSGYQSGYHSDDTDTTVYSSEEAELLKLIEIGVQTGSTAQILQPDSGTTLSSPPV

With `CCc1cc(NC(=O)NCc2ccc(-c3cc(NC(=O)c4ccc(CN5CCN(C)CC5)cc4)[nH]n3)cc2)no1` [BPR1J-340, N1-(3-4-[([(5-ethyl-3-isoxazolyl)amino]carbonylamino)methyl]phenyl-1H-5-pyrazolyl)-4-[(4-methylpiperazino)methyl]benzamide], the inhibition at 0.1 µM in data set [1] amounted to 45%; in data set [2] it was 69%. In addition, the CR ratio in data set [3] (5 mg/kg) amounted to 67%. Also, the tumor response result in data set [3] (5 mg/kg i.v. qd, days 1–5 of each week for 3 weeks, tumors about 200 mm^3) is “complete regression of the tumor in all animals by day 22; also recorded: inhibited”. The “complete regression (CR), animals” value in data set [3] (5 mg/kg i.v. qd, days 1–5 weekly for 3 weeks, within 31 days of post-treatment observation) was 4 of 6. For the same compound, in data set [3] (20 mg/kg i.v., days 1–5 of each week for 2 weeks, average tumor volume 630 mm^3, 48-day follow up), the “tumor response, large tumors” value is “complete and durable tumor regression; also recorded: significantly reversed”. Also, the “body weight, mortality, tolerability” value in data set [3] (nude mice, 5 and 20 mg/kg/day i.v.) is listed as “well-tolerated”. Further, the concentration for half-maximal inhibition (IC50) in data set [4] was approximately 1 nM; in data set [5] it was 29 ± 7 nM.
